Reference: patent publication US20130331405A1, “PIK3CA Mutation Status and SASH1 Expression Predicts Synergy Between Lapatinib and an AKT Inhibitor in HER2 Positive Breast Cancer” (THE REGENTS OF THE UNIVERSITY OF CALIFORNIA, priority 2012, published 2013)

Assays:
SUM225 = test: Growth inhibition (CTG assay), SUM225; format: cell-based; conditions: Homo sapiens, PIK3CA wt, average GI50, CTG assay
Procedure: (§1) We used a panel of breast cancer cell lines that represent the heterogeneity seen in breast tumors for drug screening. Fixed numbers of cells were plated in 96 well plates. Using a Biotek liquid handling robot, cells were treated with nine two-fold dilutions of an AKT inhibitor (GSK690693), a second drug (lapatinib), or a combination of the two. Response was measured using CTG assay as % Growth Inhibition. 50% Growth Inhibition (GI50) was calculated. Synergistic interactions between drugs was calculated by standard median-effect method using % inhibition (inhibitory concentration) readings and reported as a combination index using the Synergy module in R.

SUM190PT = test: Growth inhibition (CTG assay), SUM190PT; format: cell-based; conditions: Homo sapiens, PIK3CA p.H1047R, average GI50, CTG assay
Procedure: as §1

MDAMB361 = test: Growth inhibition (CTG assay), MDAMB361; format: cell-based; conditions: Homo sapiens, MDA-MB-361, PIK3CA wt/p.E545K, average GI50, CTG assay
Procedure: as §1

MDAMB175 = test: Growth inhibition (CTG assay), MDAMB175; format: cell-based; conditions: Homo sapiens, PIK3CA wt, PTEN wt, not HER2 amplified, average GI50, CTG assay
Procedure: as §1

MDAMB453 = test: Growth inhibition (CTG assay), MDAMB453; format: cell-based; conditions: Homo sapiens, MDA-MB-453, PIK3CA p.H1047R, PTEN wt/p.E307K, average GI50, CTG assay
Procedure: as §1

AU565 = test: Growth inhibition (CTG assay), AU565; format: cell-based; conditions: Homo sapiens, PIK3CA wt, PTEN wt, average GI50, CTG assay
Procedure: as §1

UACC812 = test: Growth inhibition (CTG assay), UACC812; format: cell-based; conditions: Homo sapiens, UACC-812, PIK3CA wt, PTEN wt, average GI50, CTG assay
Procedure: as §1

HCC1569 = test: Growth inhibition (CTG assay), HCC1569; format: cell-based; conditions: Homo sapiens, PIK3CA wt, PTEN p.K267fs*9, average GI50, CTG assay
Procedure: as §1

SKBR3 = test: Growth inhibition (CTG assay), SKBR3; format: cell-based; conditions: Homo sapiens, SK-BR-3, PIK3CA wt, PTEN wt, average GI50, CTG assay
Procedure: as §1

HCC1954 = test: Growth inhibition (CTG assay), HCC1954; format: cell-based; conditions: Homo sapiens, PIK3CA p.H1047R, average GI50, CTG assay
Procedure: as §1

HCC202 = test: Growth inhibition (CTG assay), HCC202; format: cell-based; conditions: Homo sapiens, PIK3CA p.E545K, average GI50, CTG assay
Procedure: as §1

BT474 = test: Growth inhibition (CTG assay), BT474; format: cell-based; conditions: Homo sapiens, BT-474, PIK3CA wt/p.K111N, average GI50, CTG assay
Procedure: as §1, with “50% Growth Inhibition (GI50) was calculated.” left out

Akt = conditions: ATP-competitive; three Akt isoforms; cited from earlier work

Row | GI50 (MDAMB361) [nM] | GI50 (MDAMB175) [nM] | GI50 (MDAMB453) [nM] | GI50 (HCC1569) [nM] | GI50 (SKBR3) [nM] | GI50 (HCC1954) [nM] | GI50 (HCC202) [nM] | GI50 (BT474) [nM] | SMILES | GI50 (SUM225) [nM] | GI50 (SUM190PT) [nM] | GI50 (AU565) [nM] | GI50 (UACC812) [nM] | pan-Akt kinase inhibition potency (Akt)
1 | 106 | 114 | 922 | 420 | 163 | 673 | 68 | 116 | CS(=O)(=O)CCNCc1ccc(-c2ccc3ncnc(Nc4ccc(OCc5cccc(F)c5)c(Cl)c4)c3c2)o1 [Lap, lapatinib] | 245 | 806 | 87 | 106 | –
2 | 63 | 27 | 109 | 122 | 54 | 119 | 15 | 89 | CCn1c(-c2nonc2N)nc2c(C#CC(C)(C)O)ncc(OC[C@H]3CCCNC3)c21 [AKT] | 293 | 229 | 109 | 41 | low-nanomolar
